Measurements as given in patent publication US11072612B2, “NLRP3 modulators” (INNATE TUMOR IMMUNITY, INC., priority 2016, dated 2021).

Assays:
Assay type in all cases: cell-based
TLR7 = target: T1, TLR7 (Homo sapiens, UniProt Q9NYK1); assay: TLR7 EC50 assay; conditions: Table 2
T1 sequence (Q9NYK1 27-1049): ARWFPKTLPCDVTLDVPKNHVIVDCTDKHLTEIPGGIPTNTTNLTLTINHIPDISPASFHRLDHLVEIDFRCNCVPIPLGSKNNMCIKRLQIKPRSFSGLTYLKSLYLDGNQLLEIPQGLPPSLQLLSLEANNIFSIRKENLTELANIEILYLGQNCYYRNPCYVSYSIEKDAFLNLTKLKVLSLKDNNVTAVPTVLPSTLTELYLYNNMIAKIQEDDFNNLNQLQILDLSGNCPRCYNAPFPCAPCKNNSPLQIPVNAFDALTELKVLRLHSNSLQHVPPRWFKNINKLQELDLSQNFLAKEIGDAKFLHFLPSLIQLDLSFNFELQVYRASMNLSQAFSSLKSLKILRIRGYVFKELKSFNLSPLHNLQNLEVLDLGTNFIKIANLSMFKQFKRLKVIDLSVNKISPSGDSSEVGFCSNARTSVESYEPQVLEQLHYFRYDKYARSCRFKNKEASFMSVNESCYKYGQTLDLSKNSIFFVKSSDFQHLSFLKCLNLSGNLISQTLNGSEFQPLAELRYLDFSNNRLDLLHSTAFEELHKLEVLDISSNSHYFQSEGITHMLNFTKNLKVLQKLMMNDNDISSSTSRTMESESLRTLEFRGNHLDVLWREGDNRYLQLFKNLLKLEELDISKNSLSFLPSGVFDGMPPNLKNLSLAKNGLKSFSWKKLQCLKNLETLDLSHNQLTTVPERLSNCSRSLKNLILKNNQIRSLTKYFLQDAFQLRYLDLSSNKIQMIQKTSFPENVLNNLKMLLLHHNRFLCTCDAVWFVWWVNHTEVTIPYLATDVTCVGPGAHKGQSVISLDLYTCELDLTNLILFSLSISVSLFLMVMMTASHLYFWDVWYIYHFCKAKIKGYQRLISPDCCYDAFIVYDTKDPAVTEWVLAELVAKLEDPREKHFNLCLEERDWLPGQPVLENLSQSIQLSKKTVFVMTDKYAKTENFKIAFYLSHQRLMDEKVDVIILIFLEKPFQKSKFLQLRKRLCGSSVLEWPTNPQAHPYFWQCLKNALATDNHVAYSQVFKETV

TLR8 = target: T2, TLR8 (Homo sapiens, UniProt Q9NR97); assay: TLR8 EC50 assay; conditions: Table 2
T2 sequence (Q9NR97 27-1041): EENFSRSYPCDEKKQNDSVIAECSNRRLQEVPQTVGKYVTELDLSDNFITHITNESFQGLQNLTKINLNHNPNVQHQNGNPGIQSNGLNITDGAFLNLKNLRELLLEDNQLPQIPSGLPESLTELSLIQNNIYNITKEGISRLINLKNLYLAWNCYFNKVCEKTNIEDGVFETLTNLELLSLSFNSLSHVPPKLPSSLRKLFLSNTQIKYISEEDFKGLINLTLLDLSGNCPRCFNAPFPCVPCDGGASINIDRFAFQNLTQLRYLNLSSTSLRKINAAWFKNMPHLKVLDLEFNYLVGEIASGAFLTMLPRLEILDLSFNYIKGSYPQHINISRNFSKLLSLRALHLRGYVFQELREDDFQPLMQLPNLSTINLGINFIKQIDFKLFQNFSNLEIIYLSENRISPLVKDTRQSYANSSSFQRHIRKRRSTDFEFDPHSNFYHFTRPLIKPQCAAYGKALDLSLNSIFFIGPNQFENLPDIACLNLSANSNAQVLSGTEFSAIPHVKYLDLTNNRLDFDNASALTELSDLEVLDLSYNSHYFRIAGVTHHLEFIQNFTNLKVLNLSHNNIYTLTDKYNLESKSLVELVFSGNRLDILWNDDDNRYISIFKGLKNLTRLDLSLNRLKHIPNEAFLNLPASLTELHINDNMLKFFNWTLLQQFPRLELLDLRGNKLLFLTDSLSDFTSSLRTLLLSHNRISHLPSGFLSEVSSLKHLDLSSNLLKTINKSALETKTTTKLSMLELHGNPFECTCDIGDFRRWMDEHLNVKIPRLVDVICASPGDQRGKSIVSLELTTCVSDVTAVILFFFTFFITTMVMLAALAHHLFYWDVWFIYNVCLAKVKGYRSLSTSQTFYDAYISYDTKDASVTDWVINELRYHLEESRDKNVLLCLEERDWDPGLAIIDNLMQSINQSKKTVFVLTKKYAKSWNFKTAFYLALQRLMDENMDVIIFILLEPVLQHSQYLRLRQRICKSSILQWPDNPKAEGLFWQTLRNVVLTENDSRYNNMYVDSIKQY

hNLRP3 = target: T3, hNLRP3 (Homo sapiens, UniProt Q96P20); assay: hNLRP3 agonist assay: IL-1β production in PMA-differentiated THP-1 cells (ELISA); conditions: Table 2, 4 hours, IL-1β by ELISA
T3 construct: THP-1 cells were purchased from the American Type Culture Collection; host or cells: THP-1 cells, PMA-differentiated
T3 sequence (Q96P20 whole entry): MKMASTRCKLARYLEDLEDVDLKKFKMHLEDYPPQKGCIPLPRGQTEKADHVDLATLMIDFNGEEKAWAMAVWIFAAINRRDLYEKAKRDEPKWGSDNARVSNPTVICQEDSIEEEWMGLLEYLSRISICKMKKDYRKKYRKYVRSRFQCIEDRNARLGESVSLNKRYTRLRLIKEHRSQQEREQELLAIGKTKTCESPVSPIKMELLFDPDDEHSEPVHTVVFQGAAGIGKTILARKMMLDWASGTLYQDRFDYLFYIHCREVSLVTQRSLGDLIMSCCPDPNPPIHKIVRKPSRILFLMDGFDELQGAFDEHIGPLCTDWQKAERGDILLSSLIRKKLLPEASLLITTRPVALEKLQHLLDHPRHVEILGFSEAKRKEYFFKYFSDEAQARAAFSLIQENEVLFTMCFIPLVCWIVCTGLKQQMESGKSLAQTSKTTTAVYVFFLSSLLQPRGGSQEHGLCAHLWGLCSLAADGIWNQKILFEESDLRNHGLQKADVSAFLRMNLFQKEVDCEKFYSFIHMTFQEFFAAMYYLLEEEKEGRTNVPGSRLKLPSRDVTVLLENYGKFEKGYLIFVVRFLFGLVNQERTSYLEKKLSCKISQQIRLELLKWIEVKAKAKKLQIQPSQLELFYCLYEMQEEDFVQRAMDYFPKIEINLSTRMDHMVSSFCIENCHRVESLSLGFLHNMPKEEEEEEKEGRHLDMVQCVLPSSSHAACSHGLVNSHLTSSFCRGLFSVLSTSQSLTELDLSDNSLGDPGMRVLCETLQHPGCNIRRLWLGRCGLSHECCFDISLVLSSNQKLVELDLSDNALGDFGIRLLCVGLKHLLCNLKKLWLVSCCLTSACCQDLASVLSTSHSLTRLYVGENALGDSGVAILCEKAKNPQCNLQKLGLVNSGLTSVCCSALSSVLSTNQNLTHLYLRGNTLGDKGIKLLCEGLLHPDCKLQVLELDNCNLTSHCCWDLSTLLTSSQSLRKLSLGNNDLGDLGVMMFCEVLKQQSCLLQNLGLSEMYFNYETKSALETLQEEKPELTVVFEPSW

| Structure (SMILES) | EC50 (TLR7) [µM] | EC50 (TLR8) [µM] | EC50 (hNLRP3) [µM] |
| --- | --- | --- | --- |
| Nc1nc2cc(-c3cncc4ccccc34)ccc2c2[nH]c(CCCO)nc12 [Compound 192, 3-(4-amino-7-isoquinolin-4-yl-1H-imidazo[4,5-c]quinolin-2-yl)propan-1-ol] | > 100 | > 100 | > 100 |
| Cn1c(CCCO)nc2c3ccc(-n4cccn4)cc3nc(N)c21 [Compound 113] | > 100 | > 100 | 1 to 20 |
| COc1ccccc1-c1ccc2c(c1)nc(N)c1nc(CCCO)[nH]c12 [Compound 201, 3-[4-amino-7-(2-methoxyphenyl)-1H-imidazo[4,5-c]quinolin-2-yl]propan-1-ol] | > 100 | > 100 | > 100 |
| Nc1ccc(-c2ccc3c(c2)nc(N)c2nc(CCCO)[nH]c23)cn1 [Compound 170, 3-[4-amino-7-(6-aminopyridin-3-yl)-1H-imidazo[4,5-c]quinolin-2-yl]propan-1-ol] | > 100 | > 100 | > 100 |
| Nc1nc2cc(-c3ccccc3)ccc2c2[nH]c(CCCO)nc12 [Compound 145, 3-(4-amino-7-phenyl-1H-imidazo[4,5-c]quinolin-2-yl)propan-1-ol] | > 100 | > 100 | ≤ 1 |
| Nc1nc2cc(-c3cnc4ccccc4c3)ccc2c2[nH]c(CCCO)nc12 [Compound 191, 3-(4-amino-7-quinolin-3-yl-1H-imidazo[4,5-c]quinolin-2-yl)propan-1-ol] | > 100 | > 100 | > 100 |
| Nc1nc2cc(N3CCOCC3)ccc2c2[nH]c(CCCO)nc12 [Compound 168, 3-(4-amino-7-morpholin-4-yl-1H-imidazo[4,5-c]quinolin-2-yl)propan-1-ol] | > 100 | > 100 | > 100 |
| Nc1nc2cc(C(F)(F)F)ccc2c2[nH]c(CCCO)nc12 [Compound 127] | 20 to 100 | > 100 | 20 to 100 |
| Nc1nc2ccccc2c2[nH]c(C3COC3)nc12 [Compound 129] | > 100 | > 100 | 20 to 100 |
| CCN(C(C)=O)C(C)c1nc2c(N)nc3cc(-c4cc[nH]n4)ccc3c2[nH]1 (stereo not drawn) [Compound 241] | > 100 | > 100 | 1 to 20 |
| Cn1nccc1-c1ccc2c(c1)nc(N)c1nc(CCCO)[nH]c12 [Compound 190, 3-[4-amino-7-(2-methylpyrazol-3-yl)-1H-imidazo[4,5-c]quinolin-2-yl]propan-1-ol] | > 100 | > 100 | 20 to 100 |
| CCCn1cc(-c2ccc3c(c2)nc(N)c2nc(CCCO)[nH]c23)cn1 [Compound 153, 3-[4-amino-7-(1-propylpyrazol-4-yl)-1H-imidazo[4,5-c]quinolin-2-yl]propan-1-ol] | > 100 | > 100 | 1 to 20 |
| CCN(C(=O)OC(C)(C)C)C(C)c1nc2c(N)nc3cc(-c4cc[nH]n4)ccc3c2n1Cc1ccc(OC)cc1 (stereo not drawn) [Compound 242] | > 100 | > 100 | 1 to 20 |
| Nc1nc2cc(Br)ccc2c2[nH]c([C@H]3CC[C@@H](O)CC3)nc12 [Compound 122] | > 100 | > 100 | 1 to 20 |
| CC(C(N)=O)c1ccc2c(c1)nc(N)c1nc(CCCO)[nH]c12 (stereo not drawn) [Compound 120] | > 100 | > 100 | 1 to 20 |
| Cn1c(CCCO)nc2c(N)nc3ccccc3c21 [Compound 130] | > 100 | > 100 | 20 to 100 |
